The values below come from patent US7253286B2, “Nitrogen-containing aromatic derivatives” (Eisai Co., Ltd, priority 2000, dated 2007).

For experiment [1], the system named is Human Umbilical Vein Endothelial Cells (HUVECs). Briefly: Inhibition against invasive tube formation by vascular endothelial cells in response to stimulation by angiogenic factor mixture. The experiment is classed as cell-based. On the set-up: key: the number of tubes formed in the absence of the test substance was designated as +++; scored on the 5-level scale of +++, ++, +, +/−, −; scored on the 5-level scale of +++, ++, +, +/−, −; scored on the 5-level scale of +++, ++, +, +/−, −; − was assigned if absolutely no tubes formed. Conditions: HUVEC on fibrin gel, EGF/FGF2/VEGF/HGF/TNF-α mixture, 6th day, MTT staining; for number of tubes formed in the fibrin gel (score) at 0.01 μM: test substance 0.01 μM; for number of tubes formed in the fibrin gel (score) at 0.1 μM: test substance 0.1 μM; for number of tubes formed in the fibrin gel (score) at 1.0 μM: test substance 1.0 μM. How it is done:
Inhibition Against Invasive Tube Formation by Vascular Endothelial Cells in Response to Stimulation by Angiogenic Factor Mixture
Human Umbilical Vein Endothelial Cells (HUVECs) were isolated according to a reported method (Shinseikagaku Jikken Koza [New Biochemistry Experiment Lectures], “Saibo Baiyo Gijutsu” [Cell Culturing Techniques], p.197–202), and were cultured in a 5% CO2 incubator (37° C.) using EGM-2 medium (purchased from Clonetics Corp.) until the cells reached confluency. After adding 0.4 ml of bovine fibrinogen (purchased from Sigma Co.) to the inner well of a Transwell culturing plate (purchased from Coster Inc.), it was hardened with 0.7 units/ml of thrombin (purchased from Sigma Co.). The HUVECs were recovered using trypsin-EDTA and then suspended in human endothelial serum free medium basal growth medium (hereinafter abbreviated as SFM, purchased from GIBCO BRL), and 0.4 ml of the cell suspension (1.4×10^5 cells) was seeded onto the hardened fibrin gel and cultured for approximately 4 hours in a 5% CO2 incubator (37° C.). After 4 hours, there was added to the outer chamber of the Transwell 1.5 ml of an SFM solution containing a mixture of angiogenic factors {10 ng/ml EGF (purchased from GIBCO BRL), 30 ng/ml FGF2 (purchased from GIBCO BRL), 75 ng/ml VEGF (purchased from Wako Pure Chemical Industries Co., Ltd.), 50 ng/ml HGF (purchased from R&D Co.) and 7.5 ng/ml TNF-α (purchased from Genzyme Corp.) [The concentrations of the angiogenic factors differed slightly according to the HUVEC lot.]} and a diluted test substance, and culturing was carried out in a 5% CO2 incubator (37° C.). On the 2nd and 4th days after adding the test substance, the medium was exchanged with 1.5 ml of freshly prepared SFM solution containing the angiogenic factor mixture and test substance. Upon aspirating off the culture supernatant in the inner well on the 6th day after the initial addition of the test substance, 0.4 ml of a 3.3 mg/ml MTT solution dissolved in PBS (purchased from Sigma Corp.) was added and culturing was performed for approximately 1 hour in a 5% CO2 incubator (37° C.). The number of tubes formed in the fibrin gel stained with MTT was scored based on microscope observation. Specifically, the number of tubes formed in the absence of the test substance was designated as +++, while − was assigned if absolutely no tubes formed. The number of tubes formed in the presence of the test substance was scored on the 5-level scale of +++, ++, +, +/−, − to evaluate the strength of inhibition of the test substance.

In experiment [2] the target is T1, VEGFR2 (Homo sapiens, UniProt P35968).
T1 construct: coding for the cytoplasmic domain, beginning with lysine 791 and including the termination codon; made in house; host or cells: Sf9 insect cells (baculovirus, pFastBacHis)
Briefly: Inhibition against VEGFR2 kinase (receptor tyrosine kinase activity, HTRF method). Conditions: His6-VEGFR2 cytoplasmic domain, biotin-poly(GT) substrate, ATP, 30° C. 10 minutes, read-out: IC50 (concentration required for 50% inhibition of VEGFR2 kinase activity). The experiment is classed as biochemical. The source says: Measurement of Inhibition Against Receptor Tyrosine Kinase Activity
This assay is used to determine inhibition of a test substance on tyrosine kinase activity. DNA coding for the cytoplasmic domain of VEGFR2 is obtained by total cDNA synthesis (Edwards M, International Biotechnology Lab 5(3), 19–25, 1987) or by cloning. Expression in an appropriate expression system can produce a polypeptide with tyrosine kinase activity. […] For VEGFR2 (Genbank Accession No. L04947), the 1.7 kb DNA fragment described by Terman et al. (Oncogene, 6(9), 1677–1683, 1991), coding for the cytoplasmic domain, beginning with lysine 791 and including the termination codon, was isolated from a human placental cDNA library (purchased from Clontech Laboratories, Inc.) and cloned in a Baculovirus expression vector (pFastBacHis, purchased from GIBCO BRL) The recombinant construct was transfected into insect cells (Spondoptea frugiperda9 (Sf9)) to prepare a recombinant Baculovirus. (Instructions for preparation and use of recombinant Baculovirus maybe found in standard texts, such as “Bac-To-Bac Baculovirus Expression System” (GIBCO BRL).) The cytoplasmic fragment starting from lysine 398 (FGFR1, Genbank Accession No. X52833), the cytoplasmic fragment starting from lysine 558 (PDGFRβ, Genbank Accession No. M21616) or the cytoplasmic fragment starting from lysine 974 (HGFR, Genbank Accession No. J02958) may be cloned and expressed by the same method for use in assays for other tyrosine kinases. EGFR was purchased from Sigma Co. (Product No. E-2645).
For expression of the VEGFR2 tyrosine kinase, Sf9 cells were infected with the VEGFR2 recombinant virus and collected after 48 hours. The collected cells were rinsed with ice-cooled phosphate buffered saline (PBS) and then resuspended using 20 ml of ice-cooled Lysis Buffer (50 mM Tris-HCl (pH 8.5), 5 mM 2-mercaptoethanol, 100 mM KCl, 1 mM phenylmethylsulfonyl fluoride, 1% (v/v) NP-40) per 1.5×10^8 cells. The suspension was centrifuged at 12,000 rpm for 30 minutes at 4° C. and the supernatant was obtained.
The supernatant was added to a Ni—NTA agarose column (3 ml, purchased from Qiagen) equilibrated with Buffer A {20 mM Tris-HCl (pH 8.5), 5 mM 2-mercaptoethanol, 500 mM KCl, 20 mM imidazole, 10% (v/v) glycerol}. The column was washed with 30 ml of Buffer A, and then with 6 ml of Buffer B {20 mM Tris-HCl (pH 8.5), 5 mM 2-mercaptoethanol, 1M KCl, 10% (v/v) glycerol}, and finally with 6 ml of Buffer A. After washing, it was eluted with 6 ml of Buffer C {20 mM Tris-HCl (pH8.5), 5mM2-mercaptoethanol, 100 mMKCl, 100 mM imidazole, 10% (v/v) glycerol}. The eluate was placed on a dialysis membrane (purchased from Spectrum Laboratories) and dialyzed with a dialysis buffer {20 mM Tris-HCl (pH 7.5), 10% (v/v) glycerol, 1 mM dithiothreitol, 0.1 mM Na3VO4, 0.1 mM EGTA}. After dialysis, it was supplied for SDS-electrophoresis, and the recombinant protein (His6-VEGFR2, cytoplasmic domain of VEGFR2 fused with 6 histidine residues at the N-terminus) detected at a molecular weight of approximately 100 kDa with Coumassie Brilliant Blue staining was assayed using BSA (bovine serum albumin, purchased from Sigma Co.) as the standard substance, and stored at −80° C. until use. Using the same method for the cytoplasmic domains of FGFR1, PDGFRβ and HGFR yielded respective recombinant proteins fused with 6 histidine residues at the N-termini (His6-FGFR1, His6-PDGFRβ or His6-HGFR).
The tyrosine kinase reaction was conducted as follows. […]
A general note: In TR-FRET formats the signal depends on donor and acceptor labels being close together.

Experiment [3] deals with Human Umbilical Vein Endothelial Cells (HUVECs). Description: Inhibition against sandwich tube formation by vascular endothelial cells in response to stimulation by VEGF. The experiment is classed as cell-based. Conditions: HUVEC in collagen gel sandwich, stimulation by VEGF (25 ng/ml VEGF and 10 ng/ml EGF), 4th day, total tube length, read-out: IC50 (concentration required for 50% inhibition of tube formation). The method, boiled down: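 HUVECs were sandwiched between collagen gel layers in serum-free medium with 25 ng/ml VEGF plus 10 ng/ml EGF, with test substance added above the gel at 37 °C. On day 4 tubes were MTT-stained and total tube length measured by image analysis. IC50 is the concentration halving tube length relative to no-compound wells.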

SMILES strings stand for the structures.

T1 sequence (P35968 786-1356 limits assumed): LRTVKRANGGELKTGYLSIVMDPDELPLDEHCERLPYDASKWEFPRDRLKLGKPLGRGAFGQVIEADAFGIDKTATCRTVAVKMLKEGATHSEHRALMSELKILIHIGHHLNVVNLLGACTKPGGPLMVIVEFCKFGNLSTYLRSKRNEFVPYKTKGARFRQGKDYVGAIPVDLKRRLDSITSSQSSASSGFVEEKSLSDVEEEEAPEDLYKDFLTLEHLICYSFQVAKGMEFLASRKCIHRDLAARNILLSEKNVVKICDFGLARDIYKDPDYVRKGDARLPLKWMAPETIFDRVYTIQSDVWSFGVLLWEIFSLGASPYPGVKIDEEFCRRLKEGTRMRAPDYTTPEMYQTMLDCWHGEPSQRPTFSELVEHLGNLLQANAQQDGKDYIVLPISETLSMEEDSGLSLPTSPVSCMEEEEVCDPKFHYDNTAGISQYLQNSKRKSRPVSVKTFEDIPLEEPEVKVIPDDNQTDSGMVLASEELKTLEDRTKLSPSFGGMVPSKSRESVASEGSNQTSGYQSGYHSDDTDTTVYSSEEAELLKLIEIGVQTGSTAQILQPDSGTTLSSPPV

Turning to `COCCOc1cc2nccc(Oc3ccc(NC(=O)Nc4nccs4)c(F)c3)c2cc1C#N` [Example 25, N-(4-(6-cyano-7-(2-methoxyethoxy)-4-quinolyl)oxy-2-fluorophenyl)-N′-(1,3-thiazol-2-yl)urea], in experiment [1], the “number of tubes formed in the fibrin gel (score) at 0.01 μM” value is “++”, the “number of tubes formed in the fibrin gel (score) at 0.1 μM” value is reported as “+/−” and the “number of tubes formed in the fibrin gel (score) at 1.0 μM” value is listed as “+/−”. Moreover, the IC50 in experiment [2] came out at 5.5 nM.
As for `COc1cc2nccc(Oc3ccc(NC(=O)NC4CC4)cc3)c2cc1C(N)=O` [Example 121, 4-(4-((Cyclopropylamino)carbonyl)aminophenoxy)-7-methoxy-6-quinolinecarboxamide], the IC50 in experiment [2] turned out to be 8.7 nM; in experiment [3], 42 nM.
Regarding `O=C(Nc1ccc(Oc2ncnc3[nH]c(-c4ccc(OC[C@H](O)CN5CCCC5)cc4)cc23)cc1Cl)NC1CC1` [Example 159, 1-(2-Chloro-4-{6-[4-((2R)-2-hydroxy-3-pyrrolidinopropoxy)phenyl]-7H-pyrrolo[2,3-d]pyrimidin-4-yloxy]phenyl}-3-cyclopropylurea], the values for the IC50 in experiment [2] and in experiment [3] were 25 nM and 0.6 nM, respectively.
In the case of `COCCOc1cc2nccc(Sc3ccc(NC(=O)Nc4ccc(F)cc4)s3)c2cc1C#N` [Example 253, 1-{5-[6-Cyano-7-(2-methoxyethoxy)-quinolin-4-ylsulfanyl]thiophen-2-yl}-3-(4-fluorophenyl)urea], the IC50 is 23 nM in experiment [2] and 40 nM in experiment [3].
Taken in the same sequence, the figures for `COc1cc2nccc(Oc3ccc(NC(=O)Nc4ccc(F)cc4)cc3)c2cc1NC(C)=O` [Example 265, N-(4-{4-[3-(4-Fluorophenyl)ureido]phenoxy}-7-methoxyquinolin-6-yl)acetamide] were 6.2 nM and 0.6 nM.
`COc1cc2nccc(Oc3ccc(NC(=O)Nc4ccc(F)cc4)cc3)c2cc1NS(C)(=O)=O` [Example 266, N-(4-{4-[3-(4-Fluorophenyl)ureido]phenoxy}-7-methoxyquinolin-6-yl)methanesulfoneamide]: the figures for the IC50 in experiment [2] and in experiment [3] were 5.4 nM and 0.6 nM, respectively.
Taken in the same sequence, the figures for `O=C(Nc1ccc(Oc2ncnc3[nH]c(-c4ccccn4)cc23)cc1F)NC1CC1` [Example 283, 1-Cyclopropyl-3-[2-fluoro-4-(6-(pyridin-2-yl)-7H-pyrrolo[2,3-d]pyrimidin-4-yloxy)phenyl]urea] were 26 nM and 36 nM.
On to `COc1cc2nccc(Oc3ccc4c(ccn4C(=O)NCCF)c3)c2cc1C(N)=O` [Example 314, 6-Carbamoyl-4-[1-(2-fluoroethylcarbamoyl)1H-indol-5-yloxy]-7-methoxyquinoline], for which the IC50 in experiment [2] amounted to 5.3 nM; in experiment [3], 4.2 nM.
As to `CONC(=O)c1cc2c(Oc3ccc(NC(=O)Nc4nccs4)cc3)ccnc2cc1OC` [Example 346, N6-Methoxy-7-methoxy-4-(4-(((1,3-thiazol-2-ylamino)carbonyl)amino)phenoxy)-6-quinolinecarboxamide], the IC50 came out at 4.6 nM in experiment [2] and 25 nM in experiment [3].
Consider `COc1cc2nccc(Oc3ccc(N(C)C(=O)Nc4ccc(F)cc4)cc3)c2cc1C(N)=O` [Example 348], for which, in experiment [1], the “number of tubes formed in the fibrin gel (score) at 0.01 μM” value is “+/−”, the “number of tubes formed in the fibrin gel (score) at 0.1 μM” value is “−” and the “number of tubes formed in the fibrin gel (score) at 1.0 μM” value is listed as “−”. Also, the IC50 in experiment [2] was found to be 4.6 nM.
As to `COCCOc1cc2nccc(Oc3ccc(NC(=O)NC4CC4)c(Cl)c3)c2cc1C(N)=O` [Example 381, 4-(3-Chloro-4-(cyclopropylaminocarbonyl)aminophenoxy)-7-(2-methoxyethoxy)-6-quinolinecarboxamide], the IC50 in experiment [2] was 2.6 nM; in experiment [3], 4.7 nM.
Taken in the same sequence, the figures for `NC(=O)c1cc2c(Oc3ccc(NC(=O)NC4CC4)c(Cl)c3)ccnc2cc1OCCCN1CCOCC1` [Example 382, 4-(3-Chloro-4-(cyclopropylaminocarbonyl)aminophenoxy)-7-(3-(4-morpholino)propoxy)-6-quinolinecarboxamide] were 9 nM and 4.6 nM.
With `COc1cc2nccc(Oc3ccc(NC(=O)NC4CC4)c(Cl)c3)c2cc1C(=O)NCC#N` [Example 441, N6-Cyanomethyl-4-(3-chloro-4-(((cyclopropylamino)carbonyl)amino)phenoxy)-7-methoxy-6-quinolinecarboxamide], the IC50 was determined as 2.8 nM in experiment [2] and 3.6 nM in experiment [3].
In the case of `CCCC(=O)Nc1cc(Oc2ccc(NC(=O)Nc3ccc(F)cc3)cc2)ccn1` [Example 463, N-[4-(2-Butanoylaminopyridin-4-yl)oxyphenyl]-N′-(4-fluorophenyl)urea], the IC50 in experiment [2] was 5.9 nM; in experiment [3], 26 nM.
